The values below come from US20130022644A1, “NOVEL N-PHENYLACETAMIDE DERIVATIVES, WHICH INHIBIT THE ENZYME SOAT-1, AND PHARMACEUTICAL AND COSMETIC COMPOSITIONS CONTAINING THEM” (GALDERMA RESEACH & DEVELOPMENT, priority 2009, published 2013).

Broadly, the melting point is the temperature, or range, at which the solid turns liquid. One may read the IC50 as the midpoint of a concentration-inhibition curve. The low end stands for greater potency, the high end for weaker potency.

The target of series [1] is T1, enzyme ACAT-1 (Homo sapiens, UniProt P35610).
T1 construct: endogenous in cells; host or cells: HepG2
T1 sequence (P35610 1-550): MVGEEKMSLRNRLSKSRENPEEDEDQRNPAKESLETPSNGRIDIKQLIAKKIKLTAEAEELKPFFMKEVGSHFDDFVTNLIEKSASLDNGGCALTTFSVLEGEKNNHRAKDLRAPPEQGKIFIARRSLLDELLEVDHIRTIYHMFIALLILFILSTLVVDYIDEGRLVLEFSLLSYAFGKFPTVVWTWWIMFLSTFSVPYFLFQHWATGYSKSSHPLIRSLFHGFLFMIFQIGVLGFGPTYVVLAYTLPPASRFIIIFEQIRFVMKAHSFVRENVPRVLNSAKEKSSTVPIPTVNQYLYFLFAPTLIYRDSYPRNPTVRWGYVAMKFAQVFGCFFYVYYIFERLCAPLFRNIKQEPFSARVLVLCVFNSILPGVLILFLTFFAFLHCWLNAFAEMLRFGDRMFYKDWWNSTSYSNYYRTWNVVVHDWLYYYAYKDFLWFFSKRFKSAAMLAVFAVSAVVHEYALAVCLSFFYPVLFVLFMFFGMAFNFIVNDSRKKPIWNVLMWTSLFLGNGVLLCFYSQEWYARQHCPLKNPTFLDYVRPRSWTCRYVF
Briefly: HepG2 NBD-cholesterol fluorescence test for inhibitory activity towards the enzyme ACAT-1 (SOAT-1). It is filed as cell-based. As to conditions: HepG2 cells, NBD-cholesterol 1 μg/ml, incubation 6 hours at 37° C., fluorescence ex 490 nm / em 540 nm. As to the method: The compounds (1) according to the invention, and also the pharmaceutically acceptable salts, solvates and/or hydrates thereof, have inhibitory properties on the enzyme SOAT-1. This inhibitory activity on the enzyme SOAT-1 is measured according to a HepG2 primary enzymatic test, as described in Example 3.
The compounds of formula (I) according to the invention were subjected to a test for evaluating their inhibitory activity towards the enzyme ACAT-1, inspired by the following publication: “Identification of ACAT1- and ACAT2-specific inhibitors using a novel, cell based fluorescence assay: individual ACAT uniqueness”, J. Lipid. Res. (2004) vol. 45, pages 378-386.
The principle of this test is based on the use of NBD-cholesterol, a cholesterol analogue whose fluorescence depends on its environment. When this molecule is in a polar environment, it is weakly fluorescent, whereas in a non-polar environment, it is strongly fluorescent. […]
The method below is applied: HepG2 cells are incubated in the presence of NBD-cholesterol (1 μg/ml) and of the test compound of formula (I) in black transparent-bottomed 96-well plates, at a rate of 30 000 cells per well. […] After addition of 50 μl of lysis buffer (10 mM NaPO4, 1% Igepal), the plates are shaken for 5 minutes and the fluorescence is read (excitation at 490 nm, emission at 540 nm) on a Fusion machine (Perkin-Elmer). […]

For `CCCC1(C)C(=O)N(CC(=O)Nc2c(C(C)C)cccc2C(C)C)C(=O)N1c1ccc(C)cc1` (centres unmarked) [Compound 1, N-(2,6-Diisopropylphenyl)-2-(4-methyl-2,5-dioxo-4-propyl-3-p-tolylimidazolidin-1-yl)acetamide], the melting point was determined as 186 °C. In series [1], this compound gave an IC50 of 9 nM.
